Assay results published in patent publication US8192962B2, “Processes for detecting toxic substances” (Daikin Industries, Ltd., priority 2001, dated 2012).

Tested on: Transport facilitation protein genes
Assay: DNA chip mRNA expression in yeast, transport facilitation protein genes (Table 5)
Format: cell-based, Saccharomyces cerevisiae S288C
Method in brief: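 Expression change after 2 h toxicant exposure (growth-inhibiting, sub-lethal) of log-phase S. cerevisiae S288C at 25° C. Oligo-dT-purified mRNA was labeled with Cy3-dUTP or Cy5-dUTP and hybridized >12 h at 65° C. to a genome-wide chip; ratio of scanned fluorescence to control.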

## S=C([S-])NCCNC(=S)[S-].[Zn+2] [(11), zinc N,N′-ethylenebis(dithiocarbamate)]
Yeast gene YHL035C
  The level of expressed mRNA in the presence of chemical substance/The level of expressed mRNA in the absence of chemical substance: 0.9
Yeast gene YHL036W
  The level of expressed mRNA in the presence of chemical substance/The level of expressed mRNA in the absence of chemical substance: 2.3
Yeast gene YHL040C
  The level of expressed mRNA in the presence of chemical substance/The level of expressed mRNA in the absence of chemical substance: 1.7
Yeast gene YHL047C
  The level of expressed mRNA in the presence of chemical substance/The level of expressed mRNA in the absence of chemical substance: 1.0
Yeast gene YHR026W
  The level of expressed mRNA in the presence of chemical substance/The level of expressed mRNA in the absence of chemical substance: 1.4
Yeast gene YHR048W
  The level of expressed mRNA in the presence of chemical substance/The level of expressed mRNA in the absence of chemical substance: 2.0
Yeast gene YHR092C
  The level of expressed mRNA in the presence of chemical substance/The level of expressed mRNA in the absence of chemical substance: 1.5
Yeast gene YHR094C
  The level of expressed mRNA in the presence of chemical substance/The level of expressed mRNA in the absence of chemical substance: 0.6
Yeast gene YHR175W
  The level of expressed mRNA in the presence of chemical substance/The level of expressed mRNA in the absence of chemical substance: 1.1
Yeast gene YIL006W
  The level of expressed mRNA in the presence of chemical substance/The level of expressed mRNA in the absence of chemical substance: 1.0
Yeast gene YIL022W
  The level of expressed mRNA in the presence of chemical substance/The level of expressed mRNA in the absence of chemical substance: 1.0
Yeast gene YIL056W
  The level of expressed mRNA in the presence of chemical substance/The level of expressed mRNA in the absence of chemical substance: 0.7
Yeast gene YIL088C
  The level of expressed mRNA in the presence of chemical substance/The level of expressed mRNA in the absence of chemical substance: 1.8
Yeast gene YJL034W
  The level of expressed mRNA in the presence of chemical substance/The level of expressed mRNA in the absence of chemical substance: 1.3
Yeast gene YJL212C
  The level of expressed mRNA in the presence of chemical substance/The level of expressed mRNA in the absence of chemical substance: 0.9
Yeast gene YJL219W
  The level of expressed mRNA in the presence of chemical substance/The level of expressed mRNA in the absence of chemical substance: 2.3
Yeast gene YJR077C
  The level of expressed mRNA in the presence of chemical substance/The level of expressed mRNA in the absence of chemical substance: 1.6
Yeast gene YJR106W
  The level of expressed mRNA in the presence of chemical substance/The level of expressed mRNA in the absence of chemical substance: 1.6
Yeast gene YJR121W
  The level of expressed mRNA in the presence of chemical substance/The level of expressed mRNA in the absence of chemical substance: 0.9
Yeast gene YKL016C
  The level of expressed mRNA in the presence of chemical substance/The level of expressed mRNA in the absence of chemical substance: 1.3
Yeast gene YKL146W
  The level of expressed mRNA in the presence of chemical substance/The level of expressed mRNA in the absence of chemical substance: 0.9
Yeast gene YKR039W
  The level of expressed mRNA in the presence of chemical substance/The level of expressed mRNA in the absence of chemical substance: 1.9
Yeast gene YKR067W
  The level of expressed mRNA in the presence of chemical substance/The level of expressed mRNA in the absence of chemical substance: 1.3
Yeast gene YLL028W
  The level of expressed mRNA in the presence of chemical substance/The level of expressed mRNA in the absence of chemical substance: 0.7
Yeast gene YLL055W
  The level of expressed mRNA in the presence of chemical substance/The level of expressed mRNA in the absence of chemical substance: 3.6
Yeast gene YLR081W
  The level of expressed mRNA in the presence of chemical substance/The level of expressed mRNA in the absence of chemical substance: 2.6
Yeast gene YLR295C
  The level of expressed mRNA in the presence of chemical substance/The level of expressed mRNA in the absence of chemical substance: 1.3
Yeast gene YLR348C
  The level of expressed mRNA in the presence of chemical substance/The level of expressed mRNA in the absence of chemical substance: 1.3
Yeast gene YLR378C
  The level of expressed mRNA in the presence of chemical substance/The level of expressed mRNA in the absence of chemical substance: 1.0
Yeast gene YMR011W
  The level of expressed mRNA in the presence of chemical substance/The level of expressed mRNA in the absence of chemical substance: 1.5
Yeast gene YMR162C
  The level of expressed mRNA in the presence of chemical substance/The level of expressed mRNA in the absence of chemical substance: 1.7
Yeast gene YMR203W
  The level of expressed mRNA in the presence of chemical substance/The level of expressed mRNA in the absence of chemical substance: 2.3
Yeast gene YNL055C
  The level of expressed mRNA in the presence of chemical substance/The level of expressed mRNA in the absence of chemical substance: 1.9
Yeast gene YNL259C
  The level of expressed mRNA in the presence of chemical substance/The level of expressed mRNA in the absence of chemical substance: 1.6
Yeast gene YNR072W
  The level of expressed mRNA in the presence of chemical substance/The level of expressed mRNA in the absence of chemical substance: 1.4
Yeast gene YOL119C
  The level of expressed mRNA in the presence of chemical substance/The level of expressed mRNA in the absence of chemical substance: 3.4
Yeast gene YOL156W
  The level of expressed mRNA in the presence of chemical substance/The level of expressed mRNA in the absence of chemical substance: 1.1
Yeast gene YOL158C
  The level of expressed mRNA in the presence of chemical substance/The level of expressed mRNA in the absence of chemical substance: 0.7
Yeast gene YOL163W
  The level of expressed mRNA in the presence of chemical substance/The level of expressed mRNA in the absence of chemical substance: 1.6
Yeast gene YOR035C
  The level of expressed mRNA in the presence of chemical substance/The level of expressed mRNA in the absence of chemical substance: 1.0
Yeast gene YOR130C
  The level of expressed mRNA in the presence of chemical substance/The level of expressed mRNA in the absence of chemical substance: 0.6
Yeast gene YOR153W
  The level of expressed mRNA in the presence of chemical substance/The level of expressed mRNA in the absence of chemical substance: 1.0
Yeast gene YOR270C
  The level of expressed mRNA in the presence of chemical substance/The level of expressed mRNA in the absence of chemical substance: 1.5
Yeast gene YOR273C
  The level of expressed mRNA in the presence of chemical substance/The level of expressed mRNA in the absence of chemical substance: 1.5
Yeast gene YOR316C
  The level of expressed mRNA in the presence of chemical substance/The level of expressed mRNA in the absence of chemical substance: 2.4
Yeast gene YOR328W
  The level of expressed mRNA in the presence of chemical substance/The level of expressed mRNA in the absence of chemical substance: 1.1
Yeast gene YOR332W
  The level of expressed mRNA in the presence of chemical substance/The level of expressed mRNA in the absence of chemical substance: 1.5
Yeast gene YOR348C
  The level of expressed mRNA in the presence of chemical substance/The level of expressed mRNA in the absence of chemical substance: 1.1
Yeast gene YPL036W
  The level of expressed mRNA in the presence of chemical substance/The level of expressed mRNA in the absence of chemical substance: 0.8
Yeast gene YPL134C
  The level of expressed mRNA in the presence of chemical substance/The level of expressed mRNA in the absence of chemical substance: 1.7
Yeast gene YPL265W
  The level of expressed mRNA in the presence of chemical substance/The level of expressed mRNA in the absence of chemical substance: 1.8
Yeast gene YPL271W
  The level of expressed mRNA in the presence of chemical substance/The level of expressed mRNA in the absence of chemical substance: 1.7
Yeast gene YPR124W
  The level of expressed mRNA in the presence of chemical substance/The level of expressed mRNA in the absence of chemical substance: 2.0
Yeast gene YPR192W
  The level of expressed mRNA in the presence of chemical substance/The level of expressed mRNA in the absence of chemical substance: 0.7
Yeast gene YPR194C
  The level of expressed mRNA in the presence of chemical substance/The level of expressed mRNA in the absence of chemical substance: 0.7
